Source: patent US10745741B2, “Cell barcoding in microfluidics” (EUROPEAN MOLECULAR BIOLOGY LABORATORY, priority 2015, dated 2020)

Assays:
[1] = system: p21; assay: p21 expression by qPCR on barcoded mRNA from drug-treated MCF-7 cells in droplets; type: cell-based; conditions: 12 h at 37° C., barcode 2B, qPCR (FIG. 8A)
Text: (§1) Barcoding cellular mRNA according to particular drug treatments. The combinatorial microfluidic chip was used to generate droplets containing the following components: • MCF-7 cells+media+ligation mix+barcode fragment BC-1+barcode fragment BC-A+Thiostrepton • MCF-7 cells+media+ligation mix+barcode fragment BC-2+barcode fragment BC-B+Doxorubicin treated cells • MCF-7 cells+media+ligation mix+barcode fragment BC-1+barcode fragment BC-B The resulting emulsions were collected separately in droplet traps (as shown in Hu H et al., Lab Chip 2015) for 12 h at 37° C., before cell lysis was achieved by repeated freezing and thawing. Then the emulsion was broken and hybridized cellular mRNA was purified using streptaviding-coated beads. This step ensures that only mRNA hybridized to ligated barcode combinations (e.g. 1A for the Thiostrepton sample) is isolated. Subsequently reverse transcription was carried out and the abundance of target genes was assessed by qPCR using primers specific for the target genes. Barcode fragment combination is shown exemplary for fragments BC-A and BC-1 in FIG. 7, as well as the reverse transcription and qPCR using the barcode. Expression levels of p21 (FIG. 8A) and FoxM1 (FIG. 8B) were normalized to Actb expression and the fold change in expression was determined between treated and untreated cells.

[2] = system: FoxM1; assay: FoxM1 expression by qPCR on barcoded mRNA from drug-treated MCF-7 cells in droplets; type: cell-based; conditions: 12 h at 37° C., barcode combination 1A, qPCR (FIG. 8B)
Text: as §1

Structure (SMILES)	p21 expression normalized to Actb expression, fold change between treated and untreated cells [1]	FoxM1 expression normalized to Actb expression, fold change between treated and untreated cells [2]
COc1cccc2c1C(=O)c1c(O)c3c(c(O)c1C2=O)C[C@@](O)(C(=O)CO)C[C@@H]3O[C@H]1C[C@H](N)[C@H](O)[C@H](C)O1 [Doxorubicin]	significant upregulation	–
C=C(NC(=O)C(=C)NC(=O)c1csc(C2=N[C@@H]3c4csc(n4)[C@H]4NC(=O)c5csc(n5)[C@H]([C@](C)(O)[C@@H](C)O)NC(=O)[C@H]5CSC(=N5)/C(=C/C)NC(=O)[C@H]([C@@H](C)O)NC(=O)c5csc(n5)[C@]3(CC2)NC(=O)[C@H](C)NC(=O)C(=C)NC(=O)[C@H](C)NC(=O)[C@H]([C@@H](C)CC)N[C@@H]2C=Cc3c([C@H](C)O)cc(nc3[C@H]2O)C(=O)O[C@@H]4C)n1)C(N)=O [Thiostrepton]	–	significant downregulation
